From patent publication US9738613B2, “Substituted 1,2,3-triazoles as antitumor agents” (National Central University, priority 2015, dated 2017) come the findings set out here.

Structures can show the parent of a compound that is named as a salt. Where two headings read alike, the source gives them in different places.

One assay concerns PC-3 cells. The assay can be described thus: Sulforhodamine B (SRB) growth inhibition assay, PC-3 cells. The format is cell-based, Human. How it is done: (§1) Human hormone-refractory prostate cancer cell lines PC-3 and DU-145 were from American Type Culture Collection (Rockville, MD). Cells were cultured in RPMI 1640 medium with 10% FBS (v/v) and penicillin (100 U/ml)/streptomycin (100 μg/ml). Cultures were maintained in a humidified incubator at 37° C. in 5% CO2/95% air.
(§2) Cells were seeded in 96-well plates in medium with 5% FBS. After 24 hours, cells were fixed with 10% TCA to represent cell population at the time of drug addition (T0). After additional incubation of DMSO or the compound for 48 hours (PC-3 cells) or 72 hours (DU145 cells), cells were fixed with 10% TCA and SRB at 0.4% (w/v) in 1% acetic acid was added to stain cells. Unbound SRB was washed out by 1% acetic acid and SRB bound cells were solubilized with 10 mM Trizma base. The absorbance was read at a wavelength of 515 nm. Using the following absorbance measurements, such as time zero (T0), control growth (C), and cell growth in the presence of the compound (Tx), the percentage growth was calculated at each of the compound concentrations levels. Percentage growth inhibition was calculated as: [1−(Tx−T0)/(C−T0)]×100%. Growth inhibition of 50% (IC50) is determined at the compound concentration which results in 50% reduction of total protein increase in control cells during the compound incubation. Data are expressed as mean±SEM of three to five determinations.

For another assay, the system named is DU-145 cells. The experiment in a line: Sulforhodamine B (SRB) growth inhibition assay, DU-145 cells. It counts as cell-based, Human. How it is done: as §1, §2
[1] abbreviates: Homo sapiens, PC-3 cells, 48 hours, bound stated, read-out: IC50 in PC-3 cells (text summary of Table 1).
The mark [2] stands for this setting: human hormone-refractory prostate cancer PC-3 cells, 48 hours incubation, read-out: PC-3 cells IC50.
The mark [3] stands for this setting: Homo sapiens, DU-145 cells, 72 hours, bound stated, read-out: IC50 in DU-145 cells (text summary of Table 1).
The mark [4] stands for this setting: human hormone-refractory prostate cancer DU-145 cells, 72 hours incubation, read-out: DU-145 cells IC50.

With `CCCCCCCCCCCCCCCCCCn1cc(CCC(N)(CO)CO)nn1` [Compound 4, 2-Amino-2-(2-(1-octadecyl-1H-1,2,3-triazol-4-yl)ethyl)propane-1,3-diol hydrochloride], the concentration for half-maximal inhibition (IC50) (as a rule, the concentration that inhibits the measured activity by half) with PC-3 cells (setting [1]) was less than 5 µM; in the assay with PC-3 cells (setting [2]), 3.6 µM; in the assay with DU-145 cells (setting [3]), less than 5 µM; in the assay with DU-145 cells (setting [4]), 2.4 µM.

For the molecule `CCCCCCCCCCCCCn1cc(CC(N)(CO)CO)nn1` [Compound 11, 2-Amino-2-((1-tridecyl-1H-1,2,3-triazol-4-yl)methyl)propane-1,3-diol hydrochloride], the concentration for half-maximal inhibition (IC50) in the assay with PC-3 cells (setting [1]) is less than 10 µM; in the assay with PC-3 cells (setting [2]), 5.31 µM; with DU-145 cells (setting [3]) it was less than 5 µM; in the assay with DU-145 cells (setting [4]), 4.2 µM.

For the molecule `CCCCCCCCCCCCCCCCn1cc(CC(N)(CO)CO)nn1` [Compound 2, 2-Amino-2-((1-hexadecyl-1H-1,2,3-triazol-4-yl)methyl)propane-1,3-diol hydrochloride], the IC50 with PC-3 cells (setting [1]) is less than 5 µM; with PC-3 cells (setting [2]) it was 3.3 µM; in the assay with DU-145 cells (setting [3]) it was less than 10 µM; in the assay on DU-145 cells (setting [4]), 5.3 µM.

Turning to “2-Amino-2-((1-pentadecyl-1H-1,2,3-triazol-4-yOmethyl)propane-1,3-diol hydrochloride [Compound 5]”, in the assay with PC-3 cells (setting [2]), the IC50 is 3.5 µM.

Regarding `CCCCCCCCCCCCCCCCn1cc(CCC(N)(CO)CO)nn1` [Compound 6, 2-Amino-2-(2-(1-hexadecyl-1H-1,2,3-triazol-4-yl)ethyl)propane-1,3-diol hydrochloride], the half-maximal inhibitory concentration (IC50) was less than 10 µM in the assay on PC-3 cells (setting [1]) and 6.2 µM in the assay on PC-3 cells (setting [2]).

For the molecule `CCCCCCCCCCCCCCCCCCn1cc(CC(N)(CO)CO)nn1` [Compound 3, 2-Amino-2-((1-octadecyl-1H-1,2,3-triazol-4-yl)methyl)propane-1,3-diol hydrochloride], the IC50 in the assay on PC-3 cells (setting [1]) is less than 5 µM; in the assay with PC-3 cells (setting [2]) it was 4.5 µM; in the assay on DU-145 cells (setting [3]), less than 10 µM; in the assay on DU-145 cells (setting [4]) it was 5.7 µM.

In the case of “2-Amino-2-(4-(1-tetradecyl-1H-1,2,3-triazol-4-yl)butyl)propane-1,3-diol hydrochloride [Compound 10]”, the IC50 in the assay on PC-3 cells (setting [2]) stood at 8.97 µM; with DU-145 cells (setting [4]), 6.2 µM.

For `CCCCCCCCCCCCCCCCCCCCn1cc(CC(CO)(COC)NC)nn1` (stereo not shown) [Compound 12, 3-(1-Icosyl-1H-1,2,3-triazol-4-yl)-2-(methoxymethyl)-2-(methylamino)propan-1-ol], the IC50 in the assay on PC-3 cells (setting [1]) is less than 5 µM; in the assay on PC-3 cells (setting [2]) it was 2.99 µM; with DU-145 cells (setting [3]) it was less than 5 µM; in the assay on DU-145 cells (setting [4]) it was 4.68 µM.

For `CCCCCCCCCCCCCCCCCCn1cc(CC(N)(C(=O)OCC)C(=O)OCC)nn1` [Compound 7, Diethyl 2-amino-2-((1-octadecyl-1H-1,2,3-triazol-4-yl)methyl)malonate hydrochloride], the IC50 in the assay on PC-3 cells (setting [1]) is less than 10 µM; in the assay with PC-3 cells (setting [2]) it was 7.9 µM; in the assay with DU-145 cells (setting [4]) it was more than 10 µM.

Turning to `CCCCCCCCCCCCCCn1cc(CCCC(N)(CO)CO)nn1` [Compound 9, 2-Amino-2-(3-(1-tetradecyl-1H-1,2,3-triazol-4-yl)propyl)propane-1,3-diol hydrochloride], the IC50 in the assay on PC-3 cells (setting [1]) is less than 5 µM; in the assay with PC-3 cells (setting [2]), 4.2 µM; in the assay on DU-145 cells (setting [3]), less than 10 µM; in the assay with DU-145 cells (setting [4]), 5.4 µM.

For the molecule `CCCCCCCCCCCCCCn1cc(CC(N)(CO)CO)nn1` [Compound 1, 2-Amino-2-((1-tetradecyl-1H-1,2 ,3-triazol-4-yl)methyl)propane-1,3-diol hydrochloride], the IC50 was less than 5 µM in the assay on PC-3 cells (setting [1]), 4.9 µM in the assay on PC-3 cells (setting [2]), less than 5 µM in the assay with DU-145 cells (setting [3]) and 4.7 µM in the assay with DU-145 cells (setting [4]).

Regarding `CCCCCCCCCCCCCCCCCCCCn1cc(CC(N)(CO)CO)nn1` [Compound 8, 2-Amino-2-((1-icosyl-1H-1,2,3-triazol-4-yl)methyl)propane-1,3-diol hydrochloride], the 50% inhibitory concentration (IC50) in the assay on PC-3 cells (setting [1]) is less than 5 µM; in the assay on PC-3 cells (setting [2]) it was 3.8 µM; in the assay with DU-145 cells (setting [3]), less than 10 µM; in the assay on DU-145 cells (setting [4]), 6.2 µM.
